Experimental data taken from patent USRE38460E1 (priority 1994, dated 2004).
Where two headings read alike, the source gives them in different places.

How the values were obtained:
[1] = Critical toxicity on mice (Bliss method); assay type: in vivo; conditions: mouse, in vivo, po, mice, p.o., Bliss method, mortality within 7 days
Procedure: (§1) Test of each pharmaceutical was carried out using 4-5 dosage group.
(§2) Mortality within 7 days was observed.

mice = assay: Critical toxicity on mice (Bliss method); assay type: in vivo; conditions: for LD50 relative to that of the compound of formula (I): mice; for critical toxicity compared with compound (I): mouse, in vivo
Procedure: as §1, §2

[2] = molecular target: T1, acetylcholinesterase (AChE) (Rattus norvegicus, UniProt P37136); assay: biochemical; assay type: biochemical; conditions: Table 2; for IC50: AChE taken from homogenate of rat's cortex; for IC50 ratio BuChE/AChE: cortex AChE, serum BuChE
T1 construct: from tissue; host or cells: homogenate of rat cortex
T1 sequence (P37136 32-614): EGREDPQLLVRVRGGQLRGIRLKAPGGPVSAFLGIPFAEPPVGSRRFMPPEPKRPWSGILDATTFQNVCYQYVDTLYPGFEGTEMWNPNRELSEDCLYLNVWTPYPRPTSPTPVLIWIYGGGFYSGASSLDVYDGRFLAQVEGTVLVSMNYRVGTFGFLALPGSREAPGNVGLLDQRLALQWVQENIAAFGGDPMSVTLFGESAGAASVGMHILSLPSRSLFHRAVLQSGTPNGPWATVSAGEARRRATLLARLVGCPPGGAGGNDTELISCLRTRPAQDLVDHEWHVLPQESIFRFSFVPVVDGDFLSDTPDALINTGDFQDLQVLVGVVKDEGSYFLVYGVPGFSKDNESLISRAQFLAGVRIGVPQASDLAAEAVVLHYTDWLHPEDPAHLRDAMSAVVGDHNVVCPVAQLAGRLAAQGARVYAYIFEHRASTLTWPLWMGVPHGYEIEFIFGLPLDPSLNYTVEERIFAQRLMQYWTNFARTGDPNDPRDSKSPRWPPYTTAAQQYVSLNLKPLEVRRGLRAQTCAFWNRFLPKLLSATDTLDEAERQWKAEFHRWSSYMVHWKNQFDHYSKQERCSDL
Procedure: (§3) In the present invention a calorimetric method reported by Ellman was used to determine the effect of inhibition of the pharmaceutical on enzyme activity. The total volume of the solution of the enzyme activity reaction was 4 ml, which contained 0.3 mmol/L of acetylcholin iodide (acetylcholinesterase substrate), or 0.4 mmol/L of butyrylcholin iodide (butyrylcholinesterase substrate), 1 ml of the buffer solution of 25 mmol/L of phosphate of pH 7.4, and water to make up to 4 ml (including the amount of the enzyme solution and the testing reagent added afterwards). After the solution was kept at 37° C. for 5 minutes, 0.1-0.2 ml of enzyme solution (red cell membrane or serum of rat) was added, or 0.1-0.3 ml of the testing reagent was added at the same time. The solution was kept at the same temperature for another 8 minutes. Then 1 ml of 3% of sodium lauryl sulphate was added to terminate the reaction. Finally 1 ml of 0.2% 5,5-dithio-2,2′-nitro-benzoic acid solution was added for developing.
(§4) AChE taken from homogenate of rat's cortex. BuChE taken from rat's serum.

[3] = molecular target: T2, butyrylcholinesterase (BuChE) (Rattus norvegicus, UniProt Q9JKC1); assay: In-vitro anticholinesterase effect, colorimetric method (Ellman), BuChE from rat's serum; assay type: biochemical; conditions: for inhibition effect on butyrylcholinesterase (pseudo enzyme) compared with huperzine A: see Tables 1, 2 and 6
T2 construct: from tissue; host or cells: rat serum
Procedure: as §3
(§5) AChE taken from rat's red cell membrane. BuChE taken from rat's serum.
as §4

[4] = test system: memory impairment caused by scopolamine; assay: 8-arm maze spatial distinction operation of rat, memory impairment caused by scopolamine; assay type: in vivo; conditions: for effect on improving memory (in words): 8-arm maze spatial distinction operation of rat, compared with compound of formula (I); for No. of mistakes in operation before reaching the standard, reference memory (X + SEM) / No. of mistakes in operation before reaching the standard, working memory (X + SEM): rats, 8-arm maze
[5] = molecular target: T3, acetylcholinesterase (AChE) (Rattus norvegicus, UniProt P37136); assay: biochemical; assay type: biochemical; conditions: for IC50 / IC50 ratio BuChE/AChE: Table 1; for IC50: AChE taken from rat's red cell membrane; for IC50 ratio BuChE/AChE: red cell membrane AChE, serum BuChE; for inhibition effect on acetylcholinesterase (in words) / inhibition effect on acetylcholinesterase compared with huperzine A / inhibition effect on acetylcholinesterase compared with physostigmine and galanthamine: see Tables 1, 2 and 6
T3 construct: from tissue; host or cells: rat red cell membrane
Procedure: as §3, §5
T3 sequence (P37136 other isoform, or with tags, fused parts or gaps): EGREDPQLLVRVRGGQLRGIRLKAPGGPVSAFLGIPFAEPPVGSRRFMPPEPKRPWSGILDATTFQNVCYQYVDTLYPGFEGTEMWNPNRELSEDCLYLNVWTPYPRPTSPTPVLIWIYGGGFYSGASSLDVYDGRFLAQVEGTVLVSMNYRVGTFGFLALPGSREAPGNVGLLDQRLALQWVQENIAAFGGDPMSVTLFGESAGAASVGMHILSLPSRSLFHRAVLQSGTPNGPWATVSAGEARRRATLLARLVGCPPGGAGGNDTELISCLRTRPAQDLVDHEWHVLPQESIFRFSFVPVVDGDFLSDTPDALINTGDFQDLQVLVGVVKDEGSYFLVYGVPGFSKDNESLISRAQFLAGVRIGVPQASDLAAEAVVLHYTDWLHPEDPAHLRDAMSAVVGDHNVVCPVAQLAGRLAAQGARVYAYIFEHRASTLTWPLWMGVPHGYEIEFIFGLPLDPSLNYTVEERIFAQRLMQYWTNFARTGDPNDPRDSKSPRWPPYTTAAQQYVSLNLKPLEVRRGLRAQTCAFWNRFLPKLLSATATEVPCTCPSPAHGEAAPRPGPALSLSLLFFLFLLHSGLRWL

acetylcholinesterase = molecular target: T4, acetylcholinesterase (Rattus norvegicus, UniProt P37136); assay: Study on kinetics of enzyme; assay type: biochemical
T4 sequence (P37136 32-614): T1 sequence (P37136 32-614)
Procedure: In the present invention a calorimetric method reported by Ellman was used to determine the effect of inhibition of the pharmaceutical on enzyme activity. The total volume of the solution of the enzyme activity reaction was 4 ml, which contained 0.3 mmol/L of acetylcholin iodide (acetylcholinesterase substrate), or 0.4 mmol/L of butyrylcholin iodide (butyrylcholinesterase substrate), 1 ml of the buffer solution of 25 mmol/L of phosphate of pH 7.4, and water to make up to 4 ml (including the amount of the enzyme solution and the testing reagent added afterwards). After the solution was kept at 37° C. for 5 minutes, 0.1-0.2 ml of enzyme solution (red cell membrane or serum of rat) was added, or 0.1-0.3 ml of the testing reagent was added at the same time. The solution was kept at the same temperature for another 8 minutes. Then 1 ml of 3% of sodium lauryl sulphate was added to terminate the reaction. Finally 1 ml of 0.2% 5,5-dithio-2,2′-nitro-benzoic acid solution was added for developing. “721” spectrophotometer was used to determine the density of light at 440 nm. A solution without addition of the pharmaceutical to inhibit the enzyme activity was used as a control (100%).

[6] = test system: memory impairment caused by scopolamine; assay: Mouse passive escape operation (platform jumping method), memory impairment caused by scopolamine; assay type: in vivo, mice; conditions: for delitescence of get-down (sec ± SEM): mice, tested after 24 hours; for effect on improving memory (in words): mouse passive escape operation, compared with compound of formula (I)
BuChE = molecular target: T5, BuChE (Rattus norvegicus, UniProt Q9JKC1); assay: In-vitro anticholinesterase effect (Table 6), BuChE; assay type: biochemical; conditions: read-out: inhibition activity BuChE at 10(μM)
T5 construct: from tissue; host or cells: rat serum
Procedure: as §3

AChE = molecular target: T6, AChE (Rattus norvegicus, UniProt P37136); assay: biochemical; conditions: Table 6
T6 construct: 0.1-0.2 ml of enzyme solution (red cell membrane or serum of rat) was added; from tissue; host or cells: rat tissue
T6 sequence (P37136 32-614): T1 sequence (P37136 32-614)
Procedure: as §3

[7] = first of two columns headed LD50, read-out: LD50 (first column) (95% confidence limit)
[8] = second of two columns headed LD50, read-out: LD50 (second column) (95% confidence limit)
[9] = scopolamine + derivative 0.2 ± 0.1 mg/kg ip + po
[10] = scopolamine + derivative 0.2 ± 0.3 mg/kg ip + po
[11] = scopolamine + derivative 2 + 0.2 mg/kg ip + po
[12] = scopolamine + derivative 2 + 0.4 mg/kg ip + po
[13] = scopolamine + derivative 0.124 + 0.2 mg/kg ip + po

T2 sequence (Q9JKC1 24-597): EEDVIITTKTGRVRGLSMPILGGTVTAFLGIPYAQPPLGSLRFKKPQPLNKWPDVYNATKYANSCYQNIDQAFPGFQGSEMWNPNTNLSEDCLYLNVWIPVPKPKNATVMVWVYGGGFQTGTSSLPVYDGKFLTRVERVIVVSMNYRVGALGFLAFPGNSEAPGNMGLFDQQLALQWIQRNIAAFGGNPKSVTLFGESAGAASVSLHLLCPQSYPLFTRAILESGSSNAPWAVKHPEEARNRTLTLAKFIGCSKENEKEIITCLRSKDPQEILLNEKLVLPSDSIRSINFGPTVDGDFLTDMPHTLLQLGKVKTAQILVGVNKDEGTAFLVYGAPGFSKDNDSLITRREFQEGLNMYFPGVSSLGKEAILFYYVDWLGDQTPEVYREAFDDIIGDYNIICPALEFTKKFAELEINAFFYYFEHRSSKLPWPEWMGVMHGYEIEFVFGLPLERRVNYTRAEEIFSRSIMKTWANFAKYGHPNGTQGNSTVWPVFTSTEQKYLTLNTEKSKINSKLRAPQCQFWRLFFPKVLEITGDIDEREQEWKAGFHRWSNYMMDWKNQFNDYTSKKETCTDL
T5 sequence (Q9JKC1 24-597): as above

Compound | LD50 [1, 7] | LD50 [1, 8] | LD50 relative to that of the compound of formula (I) (mice) | critical toxicity compared with compound (I) (mice) | IC50 [2] | IC50 ratio BuChE/AChE [2] | IC50 [3] | inhibition effect on butyrylcholinesterase (pseudo enzyme) compared with huperzine A [3] | effect on improving memory (in words) [4] | inhibitor of acetylcholinesterase (summary in words) [5] | IC50 [5] | IC50 ratio BuChE/AChE [5] | inhibition effect on acetylcholinesterase (in words) [5] | inhibition effect on acetylcholinesterase compared with huperzine A [5] | inhibition effect on acetylcholinesterase compared with physostigmine and galanthamine [5] | combination with acetylcholinesterase (reversibility) (acetylcholinesterase) | delitescence of get-down (sec ± SEM) [6, 11] | delitescence of get-down (sec ± SEM) [6, 12] | effect on improving memory (in words) [6] | also measured
CC=C1C2C=C(C)CC1(N=Cc1c(O)cc(OC)cc1OC)c1ccc(=O)[nH]c1C2 (stereo not drawn) [derivative No. 19] | 11.1 mg/kg | 14.1 mg/kg | ⅓ | lower critical toxicity | 144 nM | 724.6 | 105000 nM | weaker inhibition effect | very strong effect | highly effective selective inhibitors | 145 nM | 722.1 | remarkable inhibition effect | slightly weaker | apparently stronger | reversible | 71.6 ± 14.5 s | 92.2 ± 15.5 s | very strong effect | No. of mistakes in operation before reaching the standard, reference memory (X + SEM) [4, 9]: 1.33 ± 0.21; No. of mistakes in operation before reaching the standard, working memory (X + SEM) [4, 9]: 1.33; No. of mistakes in operation before reaching the standard, reference memory (X + SEM) [4, 10]: 0.33; No. of mistakes in operation before reaching the standard, working memory (X + SEM) [4, 10]: 0.17; delitescence of get-down (sec ± SEM) ([6]; scopolamine + derivative 2 + 0.1 mg/kg ip + po): 48.9 ± 12.6 s; delitescence of get-down (sec ± SEM) ([6]; scopolamine + derivative 2 + 0.3 mg/kg ip + po): 99.8 ± 16.4 s
CC=C1C2C=C(C)CC1(N=Cc1ccc(OC)c(O)c1)c1ccc(=O)[nH]c1C2 (stereo not drawn) [derivative No. 18] | 9.6 mg/kg | 14.4 mg/kg | ⅓ | lower critical toxicity | 151 nM | 708.2 | 107000 nM | weaker inhibition effect | very strong effect | highly effective selective inhibitors | 151 nM | 709.9 | remarkable inhibition effect | slightly weaker | apparently stronger | reversible | 67.7 ± 11.7 s | 48.7 ± 6.9 s | very strong effect | No. of mistakes in operation before reaching the standard, reference memory (X + SEM) [4, 13]: 0.67; No. of mistakes in operation before reaching the standard, working memory (X + SEM) [4, 13]: 0.33; delitescence of get-down (sec ± SEM) ([6]; scopolamine + derivative 3 + 0.3 mg/kg ip + po): 64.0 ± 9.8 s; inhibition at 10 µM (BuChE): 0%; BuChE/AChE (AChE): >500; inhibition at 1 µM (AChE; 1 μM): 90.2%; IC50 (AChE; read-out: inhibition activity AChE IC50): 84 nM
